The text below walks through data of patent US12485419B2, “Sorting biological and non-biological moieties using magnetic levitation” (The Board of Trustees of the Leland Stanford Junior …, priority 2015, dated 2025).

One data set has as its system red blood cells. On the procedure: The levitation of red blood cells (RBC) was as follows. Blood samples from healthy donors were received from Stanford University Blood Center. Whole blood was diluted at varying ratios in PBS containing 30 mM Gd^+. Concentrations were described in the results. Concentrations of 450 and 90 million cells/mL of blood were used to measure blood stabilization time. Varying concentrations of blood, ranging from 250 to 0.8 million cells/mL were used to correlate the width of the blood band and cell concentrations.
Referring now to FIGS. 7A-7D, the effect of drugs was monitored using the levitation device. […] FIG. 7D illustrates the actual images that were analyzed to produce the plots of FIGS. 7B and 7C. In FIG. 7D, a certain density beads was added each time for calibration experiments.
Images were taken over time in 60 minutes. […] FIG. 6B is then a graph showing the area analysis. Area of the blood were measured using an image) script developed in the lab. […] Looking at FIG. 6C, the levitation height is measured using same script. Height is directly correlated with density of cells.

A further data set relates to 3T3 cells. Kind of data set: Effects of Gd concentration and levitation on cell viability (live/dead assay of spheroids). The data set is classed as cell-based. The settings on record: 48 hours exposure to 0, 25, 50, 100 mM Gd^+; magnetic levitation (LEV) and hanging drop (HD); FIG. 30. On the procedure: Referring now to FIG. 30, the effects of Gd concentration and levitation on cell viability are illustrated. 3T3 cells were exposed for 48 hours to different concentration of Gd^+ (0, 25, 50, 100 mM) during magnetic levitation (LEV) and hanging drop (HD). Spheroid viability was then assessed with live/dead assay (calcein/ethidium homodimer^−1). […] The white scale bar is 100 μm.

On to `CCN(CC)CCCC(C)Nc1ccnc2cc(Cl)ccc12` (stereo not shown) [chloroquine], for which the “levitation height of red blood cells” value in the data set with red blood cells (75 mg/mL chloroquine spiked into red blood cells, with increasing time of exposure, FIG. 7A) is given as “decreases”. Also, the “levitation height of blood sample in capillary channel” value with red blood cells (chloroquine at 7.5 mg/mL and 75 mg/mL, Sample-1, Sample-2, Sample-3, especially after the high dosage, FIG. 8) is reported as “levels out at a very low height”. In the data set with red blood cells (i-LEV, higher drug concentration, within 50 minutes, FIG. 6C), the “density of blood (from levitation height)” value is on record as “higher density”.
As to `O=C([O-])CN1CCN(CC(=O)[O-])CCN([C@H](CO)[C@H](O)CO)CCN(CC(=O)[O-])CC1.[Gd+3]` [Gd^+], the “spheroid viability (calcein/ethidium homodimer live/dead assay)” value in the data set on 3T3 cells is reported as “majority of the cells in the aggregates are alive”.
